15 compounds from BindingDB's records for doi:10.7270/Q2GH9GBT (Nmmlsc, 2008) can be followed below.

Structures are written as SMILES.

The first experiment has as its target T1, Bcl-2-like protein 10 [11-204] (Homo sapiens, UniProt Q9HD36).
T1 construct: 11-204
T1 sequence (Q9HD36 whole entry): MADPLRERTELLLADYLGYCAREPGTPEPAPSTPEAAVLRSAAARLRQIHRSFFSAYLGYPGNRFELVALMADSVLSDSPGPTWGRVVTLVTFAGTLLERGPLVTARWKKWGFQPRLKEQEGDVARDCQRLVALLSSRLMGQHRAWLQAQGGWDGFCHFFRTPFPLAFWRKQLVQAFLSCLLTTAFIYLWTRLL
The experiment is described as follows: modulators of Bcl-B/Bim peptide interaction – biochemical, multiplexed, bead-based flow cytometry, human, dose response (AID 1327).
Details: not given
(In flow cytometry, cells or beads pass a laser one at a time.)
Compound `Cc1ccc(C=NNC(=O)CSc2nnc(-c3ccc(Cl)cc3)n2-c2ccccc2)o1` [SMR000218122] gave an EC50 of 9.23 µM. The same measure, in the same setting: the figure for `Clc1nc2ccccc2cc1CN=Nc1nc2ccccc2[nH]1` [SMR000221568] is 35.7 µM.

Staying with this experiment, now noted: inactive by the depositor's call.
For `Cc1ccc(C=NN(C)C2=NS(=O)(=O)c3ccccc32)o1` [N-methyl-N-[(5-methyl-2-furanyl)methylideneamino]-1,1-dioxo-1,2-benzothiazol-3-amine], the midpoint of the response, the EC50, lay at 7.38 µM. In other words, the single-digit micromolar range. Same read-out and setting: as for `CSc1nnc2c3cc(C)ccc3n(Cc3ccccc3)c2n1` [SMR000046397], the figure is 30.7 µM; as for `c1ccc(-c2nc(N3CCCCCC3)c3ccccc3n2)nc1` [SMR000046752], 16.7 µM. `O=C(Nc1ccc2nc(-c3ccco3)c(-c3ccco3)nc2c1)NC1CC1` [SMR000118524] registered a concentration for a half-maximal effect (EC50) of 45.1 µM. Same read-out and setting: as for `C#CCn1cc(C=C2C(=O)c3ccccc3C2=O)c2ccccc21` [SMR000196125], the figure is 17.8 µM; as for `CN(N=Cc1cccnc1)C1=NS(=O)(=O)c2ccccc21` [SMR000207578], 20 µM; as for `COc1ccc(OC)c(-n2c(=O)c3ccccc3c3ccccc3c2=O)c1` [SMR000236434], 16.4 µM. `Nc1c(C(=O)NCC2CCCO2)sc2nc3c(c(-c4ccco4)c12)CC/C3=C\c1ccco1` (stereo not given) [SMR000259502]: the response was half-maximal at 13.7 µM (EC50). This EC50 and that of the compound before are within 1.5-fold of each other. Take `Nc1c(C(=O)NC2CC2)sc2nc3c(c(-c4ccco4)c12)CC/C3=C/c1ccco1` [SMR000259554]: a half-maximal response (EC50) required 10.4 µM. The EC50 values of the last two compounds are within 1.5-fold of each other. In turn, `Cc1nnc2ccc(-c3cccc(NC(=O)c4ccco4)c3)nn12` [SMR000324305] gave an EC50 of 3.53 µM.

As to `O=C(Nc1cccc(Cl)c1)Nc1ccnc(-c2cccnc2)n1` [SMR000337179], it took 1.11 µM to reach a half-maximal effect (EC50). Compared with the last compound, the EC50 is about 3.2-fold lower.

In turn, `CCOC(=O)c1nc(Nc2ccc(C(=O)OC)cc2)c2ccccc2n1` [ethyl 4-(4-methoxycarbonylanilino)quinazoline-2-carboxylate] showed an EC50 of 11.2 µM. Still for that read-out and setting: as for `CN(N=Cc1ccncc1)C1=NS(=O)(=O)c2ccccc21` [isonicotinaldehyde (1,1-dioxido-1,2-benzisothiazol-3-yl)(methyl)hydrazone], the figure is 1.82 µM.

Usually EC50 stands for the concentration giving half of the maximal effect.
